Experimental data published in patent US11426405B2, “Inhibition of JAK-STAT signaling inhibits formation of neutrophil extracellular traps (NETs)” (The Brigham and Women's Hospital, Inc., priority 2017, dated 2022).
Values joined by “and” are separate entries in the source; they are usually repeats but may differ in a detail not shown here. Identical values can stand only once.

B1: DNase: deoxyribonuclease (DNase; Pulmozyme, Genentech), disrupts NET structures (protein, UniProt P24855 23-282, looked up)
Deoxyribonuclease-1: LKIAAFNIQTFGETKMSNATLVSYIVQILSRYDIALVQEVRDSHLTAVGKLLDNLNQDAPDTYHYVVSEPLGRNSYKERYLFVYRPDQVSAVDSYYYDDGCEPCGNDTFNREPAIVRFFSRFTEVREFAIVPLHAAPGDAVAEIDALYDVYLDVQEKWGLEDVMLMGDFNAGCSYVRPSQWSSIRLWTSPTFQWLIPDSADTTATPTHCAYDRIVVAGMLLRGAVVPDSALPFNFQAAYGLSDQLAQAISDHYPVEVMLK

Experiments:
[1] = tested on: neutrophils from patients with MPNs; experiment: NET formation in neutrophils from MPN patients receiving a JAK inhibitor; type: cell-based, human; conditions: individual JAK inhibitor-treated MPN patients; 4 μM ionomycin stimulation; some patients also on ASA or Hydrea
Text: Whole blood was collected into ethylenediaminetetraacetic acid (EDTA)-coated tubes. Patients and controls were excluded if they had conditions that are known or suspected to affect NET formation such as active infection, active cancer (37), history of an autoimmune disease (38), treatment with immunosuppressive or anti-inflammatory drugs or history of diabetes (29). In addition, patients with recent history of infection, trauma or surgery (3 months before blood draw) were excluded. Therapy with acetylsalicylic acid (aspirin), hydroxyurea or anagrelide was allowed. […]
Neutrophil isolation and NET formation were carried out as previously described (39). […] Purity of cells was >95% as determined by Wright-Giemsa staining (FIG. 5B). For the screening NET assay, NET-bound neutrophil elastase was quantified using an available commercial kit according to manufacturer's instructions (Cayman chemical). […]
Fixed cells were processed as detailed above. Immunostaining, fluorescence microscopy and NET quantification procedures were similar for human and mouse specimens. […]
Images were acquired on an Axiovert 200M wide-field fluorescence microscope (Zeiss) coupled to an AxioCam MR3 monochromatic CCD camera (Zeiss) using a Zeiss Plan-Neofluar 20×/0.4 Con Ph2 objective lens with the Zeiss AxioVision software (version 4.6.3.0). […]

[2] = tested on: Jak2^WT and Jak2^V617F mice; experiment: Venous stenosis model: partial ligation of the inferior vena cava; type: in vivo, mouse; conditions: for Thrombus formation rate (clots/mice): DNase 50 μg i.p. and 10 μg i.v. after surgery
Protocol: Sections were allowed to come to room temperature, before rinsing in PBS with 0.1% Tween 20 (PBST). Sections were blocked for 1 hour at room temperature with 10% FBS in PBST in a humidified chamber. Sections were incubated in the same chamber overnight at 4° C. with the primary antibodies described above against Ly6G and H3^cit in 10% FBS in PBST. Slides were rinsed in PBST before incubating with the secondary antibody under the same conditions as used for the primary antibody (goat anti-rat Ig (IgG) (Alexa555, 1.5 μg/mL) or donkey anti-rabbit IgG (Alexa647, 1.5 μg/mL). After a further wash in PBST sections were stained with DAPI and mounted as described above. Sections were visualized using Axiolmager D1 (Carl Zeiss Microscopy) and images taken using Axiocam MRc Camera (Carl Zeiss Microscopy). Zen software 2.3 (version 13) was used to analyze images. For the final images used in the figures, Alexa647 was represented using green.
After bone marrow harvest, c-Kit positive marrow cells were obtained from VavCre/Jak2^V617F KI mice using CD117 Microbeads according to manufacturer's instructions (Miltenyi Bitotec).
DNase 1 (Pulmozyme, Genentech) was diluted in sterile saline and injected immediately after surgery (50 μg intraperitoneally and 10 μg intravenously via tail vein). […] Mice were assessed for thrombosis at 4 hours.

Row | Molecule | % NET formation [1] | Thrombosis rate at 2 hours post-IVC ligation ([2]; Jak2^V617F mice, ruxolitinib 90 mg/kg twice a day for 72 hours, vehicle 45%) [%] | Thrombosis rate at 4 hours post-IVC ligation ([2]; Jak2^V617F mice, ruxolitinib 90 mg/kg twice a day for 72 hours, vehicle 71%) [%] | Thrombus formation rate (clots/mice) ([2]; Jak2^V617F mice, vehicle 5/7, p=0.007) | Thrombus formation rate (clots/mice) ([2]; Jak2^WT mice, vehicle 5/8, p=0.06)
1 | C[C@H](Nc1cc(-c2cnn(C)c2)cc(Nc2cnccn2)n1)c1ccc(F)cc1 [NS-018] | 6.9% | – | – | – | –
2 | N#CC[C@H](C1CCCC1)n1cc(-c2ncnc3[nH]ccc23)cn1 [Ruxolitinib] | 1.5% and 5.9% and 5.4% and 5.5% | 0 | 21 | – | –
3 | B1 | – | – | – | 0/8 | 1/7
